Structures are written as SMILES. Where only a bound is given, the exact number is not on record here.

One assay has as its target KRAS-G12C/SOS1 (Homo sapiens (Human), UniProt Q07889). Kind of assay: Detection of inhibitory effects of compounds on KRAS-G12C/SOS1 (KRASG12C/SOS binding kit, HTRF). Conditions: Em665/620, read-out: IC50, inhibitory activity on interaction of KRAS-G12C/SOS1. An excerpt:
Experimental objective: The inhibitory effects of the tested compounds on KRAS-G12C/SOS1 were detected. IC50 was used to characterize the inhibitory ability of the compounds on the KRAS-G12C/SOS1. The lower IC50 value indicated the stronger inhibitory ability. BI-3406 was used as a positive control compound.
Experimental reagents: KRASG12C/SOS binding kit (Cisbio, cat. 63ADK000CB16PEG); DMSO (Sigma, cat. D8418-1L); and 384-well white plate (PerkinElmer, cat. 6007290)
• 1. Preparation of compounds: the test compounds were dissolved in 100% DMSO to obtain 10 mM stock solutions and the stock solutions were stored in a refrigerator in the dark. • 2. Kinase reaction process:
Preparation of compounds: the test compounds had the concentration of 5,000 nM and diluted in a 384-well plate into a 100% DMSO solution at the 200-fold final concentration, and the compounds were diluted 3-fold with 10 concentrations. 50 nL of the compounds at the 200-fold final concentration were transferred to the plate of interest, the 384-well plate, using a dispenser Echo 550. 50 nL of 100% DMSO was added to each negative control well and positive control well.
A Tag1-SOS1 solution at the 4-fold final concentration was prepared using a diluent buffer.
2.5 μL of the Tag1-SOS1 solution at the 4-fold final concentration was added to the 384-well plate.
A Tag2-KRAS-G12C solution at the 4-fold final concentration was prepared using the diluent buffer.
2.5 μL of the Tag2-KRAS-G12C solution at the 4-fold final concentration was respectively added into compound wells and the positive control wells; and 2.5 μL of the diluent buffer was added to the negative control wells.
The 384-well plate was centrifuged at 1,000 rpm for 30 seconds, shaken and mixed uniformly, and incubated at room temperature for 15 minutes.
An Anti-Tag1-TB3+ solution at the 1-fold final concentration and an Anti-Tag2-XL665 solution at the 1-fold final concentration were prepared using a detection buffer, the two solutions were mixed uniformly to obtain a Mix solution, and 5 μL of the Mix solution was added into each well.
The 384-well plate was centrifuged at 1,000 rpm for 30 seconds, shaken and mixed uniformly, and incubated at 4° C. for 120 minutes.
Em665/620 was read using an Envision microplate reader.
Inhibition %=(Max signal−Compound signal)/(Max signal−Min signal)×100 Calculation formula • wherein the Min signal was the mean value of the negative control wells, and the Max signal was the mean value of the positive control wells.
A dose-response curve was fitted using the log value of the concentration as an X axis and the percentage of the inhibitory rate as a Y axis by using the log(inhibitor) vs. response-variable slope of an analytical software GraphPadPrism5, thereby obtaining the IC50 value of each compound on an enzyme activity.

The next assay relates to p-ERK of PC-9 cells. Kind of assay: p-ERK HTRF assay in PC-9 cells. The assay is classed as cell-based. Particulars: Homo sapiens, PC-9, 1 h, PC-9 lung cancer cells, 1 hour treatment, read-out: IC50, inhibitory activity on p-ERK of PC-9 cells. As to the method:
IC50 Values of Compounds Determined by p-ERK HTRF Assay in PC-9 Cells
Experimental objective: an inhibitory effect of the test compounds on the phosphorylation of PC-9ERK of lung cancer cells at a cellular level was evaluated by detecting the phosphorylation of ERK.
• PRMI 1640 medium (Invitrogen-11875093) • 0.25% pancreatin (Invitrogen-25200056) • Phosphoric acid buffer salt solution (PBS, pH 7.4) (Invitrogen-10010023) • Double-antibody (PS) (Invitrogen-15140122) • Fetal bovine serum (FBS) (Gibco-10091148) • Trypan blue (Gibco-15250061) • 10-cm culture dish (Corning-430167) • 10-mL pipette (Costar-4488) • Pipettor (Sartorius-17009031) • 15-mL centrifuge tube (Corning-430052) • 50-mL centrifuge tube (Corning-430829) • Cryotube (Thermo-377267) • 1.5-mL EP tube (Axygen-MCT-150-C-S) • Cell incubator (Thermo-371) • Microscope (Olympus-CKX41) • Centrifuge (Flying Pigeon-TDL-80-2B) • Cell counter (Countstar-IC-1000) • Envision (Perkin Elmer) • Spark 10M (TECAN) • Phospho-ERK1/2 (Thr202/Tyr204) Experimental kit (Cisbio, Cat. No. 64AERPEG) • PC-9 cells: RPMI1640+10% FBS+1% PS
• 1) PBS, 0.25% pancreatin, and a cell culture medium were placed in a water-bath kettle at 37° C. for preheating; • 2) cells were observed under a microscope, a fusion degree was evaluated, and no bacterial and fungi pollution was confirmed; • 3) a culture solution was removed, the cells were washed with 5 mL of PBS and digested with 2 mL of the 0.25% trypsin, the digestion was terminated with 10 mL of the fresh cell culture medium, a culture dish was rinsed, and the cells were transferred to a 15-mL centrifuge tube; • 4) the collected cells were centrifuged at 1,000 rpm for 5 minutes; • 5) after the centrifugation, the supernatant was discarded, the cells were resuspended in 5 mL of the cell culture medium, 20 μL of the resuspended cells were aspirated, and the number and viability of viable cells were recorded; • 6) the cell culture medium was used and the cell density was adjusted (PC-9:10,000 cells/well, and 45 μL per well); • 7) in a 384-well plate, 45 μL of a cell suspension per well was transferred according to an experimental design figure; and • 8) the cells were incubated overnight at 37° C. and 5% CO2.
• 1) The compounds were diluted from the stock concentration to 10 mM with 100% DMSO (Trametinib was diluted to 1 mM), then 3-fold diluted into 10 points (5 μL of the diluted compounds with the concentration of 10 mM were transferred to 10 μL of the DMSO in an LDV plate), and centrifuged at 1,000 rpm/min for 1 minute; • 2) 5 μL of the diluted compounds of step 1) were transferred to an inter plate 1 containing 45 μL of the cell culture medium (the compounds were diluted from 1,000× to 100×); • 3) 5 μL of the diluted compounds of step 2) were transferred to an inter plate 2 containing 45 μL of the cell culture medium (the compounds were diluted from 100× to 10×); • 4) 5 μL of the compounds were pipetted from the inter plate 2 into a cell culture plate (the compounds were diluted from 10 folds to 1 fold), the final concentrations of the test compounds were 10,000 nM, 3333.33 nM, 1111.11 nM, 370.37 nM, 123.46 nM, 41.15 nM, 13.72 nM, 4.57 nM, 1.52 nM, and […], the solution was centrifuged at 1,000 rpm/min for 1 minute, and the final content of the DMSO was 0.1%; and • 5) the cells were treated in an incubator at 37° C. for 1 hour. […]

Chain of KRAS-G12C/SOS1 (Q07889 whole entry, stated change not applied): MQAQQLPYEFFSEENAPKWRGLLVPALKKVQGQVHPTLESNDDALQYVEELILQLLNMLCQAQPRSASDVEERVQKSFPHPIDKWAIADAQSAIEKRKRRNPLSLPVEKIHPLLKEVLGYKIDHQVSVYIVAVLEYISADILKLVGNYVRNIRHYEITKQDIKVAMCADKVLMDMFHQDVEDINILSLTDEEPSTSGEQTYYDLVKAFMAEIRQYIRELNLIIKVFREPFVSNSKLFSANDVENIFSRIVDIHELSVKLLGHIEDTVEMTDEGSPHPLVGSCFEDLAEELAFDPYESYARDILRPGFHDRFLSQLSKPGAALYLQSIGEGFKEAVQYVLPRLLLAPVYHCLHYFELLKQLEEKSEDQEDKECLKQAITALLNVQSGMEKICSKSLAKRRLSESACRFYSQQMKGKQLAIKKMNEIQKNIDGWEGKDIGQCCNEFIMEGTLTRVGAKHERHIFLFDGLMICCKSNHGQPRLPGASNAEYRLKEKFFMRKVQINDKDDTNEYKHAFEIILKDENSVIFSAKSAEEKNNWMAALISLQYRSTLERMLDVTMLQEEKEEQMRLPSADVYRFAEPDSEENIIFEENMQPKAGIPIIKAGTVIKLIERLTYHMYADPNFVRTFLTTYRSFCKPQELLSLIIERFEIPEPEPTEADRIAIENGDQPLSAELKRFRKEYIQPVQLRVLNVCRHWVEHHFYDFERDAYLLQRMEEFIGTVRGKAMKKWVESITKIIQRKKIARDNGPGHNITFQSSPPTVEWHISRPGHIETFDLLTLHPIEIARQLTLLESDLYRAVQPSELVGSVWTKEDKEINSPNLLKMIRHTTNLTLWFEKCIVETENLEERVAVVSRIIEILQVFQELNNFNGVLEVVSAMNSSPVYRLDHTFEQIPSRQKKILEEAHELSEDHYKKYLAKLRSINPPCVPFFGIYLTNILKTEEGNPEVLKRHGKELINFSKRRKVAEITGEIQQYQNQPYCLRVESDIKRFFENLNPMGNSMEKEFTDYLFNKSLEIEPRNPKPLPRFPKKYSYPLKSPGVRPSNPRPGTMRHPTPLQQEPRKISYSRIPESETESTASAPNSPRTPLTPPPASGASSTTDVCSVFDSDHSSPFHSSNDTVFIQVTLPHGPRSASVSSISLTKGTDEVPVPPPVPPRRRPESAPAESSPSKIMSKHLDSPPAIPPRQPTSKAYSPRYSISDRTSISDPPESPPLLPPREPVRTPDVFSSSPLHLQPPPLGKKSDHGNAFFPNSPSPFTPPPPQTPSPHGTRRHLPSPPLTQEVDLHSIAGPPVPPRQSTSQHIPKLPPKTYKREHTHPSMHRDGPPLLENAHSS

`C[C@@H](Nc1ccnc2cnc(C3(O)CCN(C(=O)[C@H]4CNCCO4)CC3)cc12)c1cccc(C(F)F)c1F` [Compound B-136]: the IC50 on KRAS-G12C/SOS1 was at most 100 nM; in the assay with p-ERK of PC-9 cells, above 1000 nM.
As to `C[C@@H]1OCC2(CCN(c3cc4c(N[C@H](C)c5cccc(C(F)F)c5F)ccnc4cn3)CC2)[C@@H]1N` [Compound B-79], the IC50 on KRAS-G12C/SOS1 was at most 100 nM; with p-ERK of PC-9 cells, at most 300 nM.
For `CNCC(=O)N1CCC(O)(c2cc3c(N[C@H](C)c4cccc(C(F)F)c4F)ccnc3cn2)CC1` [Compound B-122], the IC50 at KRAS-G12C/SOS1 was at most 100 nM; with p-ERK of PC-9 cells it was above 1000 nM.
`Cc1cc(N[C@H](C)c2cccc(C(F)F)c2F)c2cc(N3CCCS3(=O)=O)ncc2n1` [Compound B-72]: the figures for the IC50 at KRAS-G12C/SOS1 and in the assay with p-ERK of PC-9 cells were at most 100 nM and 300 to 1000 nM, respectively.
For `C[C@@H](Nc1ccnc2cnc(-c3ccc(=O)n(C)c3)cc12)c1cccc(C(F)F)c1F` [Compound B-107], in that order: at most 100 nM and at most 300 nM.
Regarding `CC(=O)N1CCC(O)(c2cc3c(N[C@H](C)c4cccc(C(F)(F)F)c4F)ccnc3cn2)CC1` [Compound B-112], the IC50 is at most 100 nM at KRAS-G12C/SOS1 and at most 300 nM in the assay with p-ERK of PC-9 cells.
For `C[C@@H](Nc1ccnc2cnc(N3CCNCC3)cc12)c1cccc(C(F)F)c1F` [Compound B-22], in that order: at most 100 nM and 300 to 1000 nM.
On to `CC(=O)N1CCN(c2cc3c(N[C@H](C)c4cccc(C(F)(F)F)c4)ccnc3cn2)CC1` [Compound B-49], for which the IC50 at KRAS-G12C/SOS1 was at most 100 nM; in the assay with p-ERK of PC-9 cells it was at most 300 nM.
With `C[C@@H](Nc1ccnc2cnc(C3(O)CCS(=O)(=O)CC3)cc12)c1cccc(C(F)F)c1F` [Compound B-91], the IC50 at KRAS-G12C/SOS1 is at most 100 nM; in the assay on p-ERK of PC-9 cells, 300 to 1000 nM.
Turning to `CNC(=O)C1CCN(c2cc3c(N[C@H](C)c4cccc(C(F)F)c4F)ccnc3cn2)CC1` [Compound B-36], the figures for the IC50 on KRAS-G12C/SOS1 and with p-ERK of PC-9 cells were at most 100 nM and at most 300 nM, respectively.
As to `CC(=O)N1CCC(c2cc3c(N[C@H](C)c4cccc(C(F)F)c4F)ccnc3cn2)C1` (stereo partly shown) [Compound B-110], the IC50 at KRAS-G12C/SOS1 is at most 100 nM; with p-ERK of PC-9 cells, at most 300 nM.
Regarding `C[C@@H](Nc1ccnc2cnc(C3(O)CCN(C(=O)CN4CCOCC4)CC3)cc12)c1cccc(C(F)F)c1F` [Compound B-148], the IC50 at KRAS-G12C/SOS1 was at most 100 nM; in the assay with p-ERK of PC-9 cells, at most 300 nM.
As for `C[C@@H](Nc1ccnc2cnc(N3CCN(C)C(=O)C3)cc12)c1cccc(C(F)F)c1F` [Compound B-41], the IC50 is at most 100 nM on KRAS-G12C/SOS1 and at most 300 nM with p-ERK of PC-9 cells.
For `C[C@@H](Nc1ccnc2cnc(C3(O)CCN(C(=O)CO)CC3)cc12)c1cccc(C(F)F)c1F` [Compound B-113], the IC50 at KRAS-G12C/SOS1 is at most 100 nM; in the assay with p-ERK of PC-9 cells it was at most 300 nM.

For the origin of these results see patent US20250042857A1, “SOS1 Inhibitor With Pyrido-Fused Six-Membered Ring Structure” (HAIHE BIOPHARMA CO., LTD., priority 2021, published 2025).
